Data published in article PMC7327383, “The affinity and selectivity of α‐adrenoceptor antagonists, antidepressants, and antipsychotics for the human α1A, α1B, and α1D‐adrenoceptors” (Pharmacology Research & Perspectives, 2020).
Read-outs that look alike come from different tables or passages of the source.

Assays:
human α1A-adrenoceptor = target: T1, human α1A-adrenoceptor (Homo sapiens, UniProt P35348); experiment: [3H]prazosin whole-cell competition binding, CHO-α1A cells; details: for Selectivity ratio α1A vs α1D / Selectivity ratio α1A vs α1B: ratio of KD values, 1.0 under vs = none; for Selectivity ratio α1A vs α1D: higher α1A affinity; for Selectivity ratio α1A vs α1B: printed under α1A = higher α1A affinity; for selectivity α1A vs 1D / selectivity α1A vs α1B: ratio, 1 = no selectivity for a subtype over another
T1 construct: CHO cells stably expressing either the full‐length human α1A, α1B, or α1D‐adrenoceptor
T1 sequence (P35348 1-466): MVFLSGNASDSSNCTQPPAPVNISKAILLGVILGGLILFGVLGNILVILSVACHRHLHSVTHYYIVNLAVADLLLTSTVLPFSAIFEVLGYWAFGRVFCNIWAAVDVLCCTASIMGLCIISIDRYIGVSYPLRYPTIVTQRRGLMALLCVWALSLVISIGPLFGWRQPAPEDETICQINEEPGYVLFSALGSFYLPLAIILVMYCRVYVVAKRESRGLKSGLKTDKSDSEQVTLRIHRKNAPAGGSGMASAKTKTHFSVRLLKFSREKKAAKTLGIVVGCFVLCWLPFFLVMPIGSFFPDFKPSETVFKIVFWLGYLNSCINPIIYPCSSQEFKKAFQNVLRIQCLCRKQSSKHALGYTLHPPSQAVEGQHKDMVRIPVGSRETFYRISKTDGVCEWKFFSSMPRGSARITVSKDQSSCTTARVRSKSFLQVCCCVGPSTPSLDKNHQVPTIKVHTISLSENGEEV

human α1B-adrenoceptor = target: T2, human α1B-adrenoceptor (Homo sapiens, UniProt P35368); experiment: [3H]prazosin whole-cell competition binding, CHO-α1B cells; details: for selectivity α1B vs α1D: ratio, 1 = no selectivity for a subtype over another; for Kd: read-out: Log KD α1B (converted); for Log KD α1B: result in words: no inhibition of [3H]prazosin binding at maximum concentration possible; for binding at α1B: result in words in the Log KD α1B column; for binding at α1B (result in words): up to the maximum concentration
T2 construct: CHO cells stably expressing either the full‐length human α1A, α1B, or α1D‐adrenoceptor
T2 sequence (P35368 1-520): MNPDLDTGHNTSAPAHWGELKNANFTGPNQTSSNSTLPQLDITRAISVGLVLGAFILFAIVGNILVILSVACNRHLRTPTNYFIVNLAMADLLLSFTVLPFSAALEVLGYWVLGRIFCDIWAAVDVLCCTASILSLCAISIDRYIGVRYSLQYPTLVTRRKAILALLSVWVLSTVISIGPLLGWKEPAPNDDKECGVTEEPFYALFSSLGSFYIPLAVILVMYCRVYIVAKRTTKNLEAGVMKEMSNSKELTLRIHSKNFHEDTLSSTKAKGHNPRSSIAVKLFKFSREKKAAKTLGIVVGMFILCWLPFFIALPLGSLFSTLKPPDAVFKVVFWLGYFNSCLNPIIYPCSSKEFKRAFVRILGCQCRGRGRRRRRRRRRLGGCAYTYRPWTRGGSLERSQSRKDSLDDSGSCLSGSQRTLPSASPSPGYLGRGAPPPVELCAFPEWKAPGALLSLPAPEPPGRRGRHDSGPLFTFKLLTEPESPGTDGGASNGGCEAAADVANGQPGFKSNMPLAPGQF

[1] = target: T3, full-length human α1D-adrenoceptor (Homo sapiens, UniProt P25100); experiment: [3H]prazosin whole-cell competition binding, CHO-α1D cells; details: for Selectivity ratio α1B vs α1D / Selectivity ratio α1A vs α1D: ratio of KD values, higher α1D affinity (site 1 KD)
T3 sequence (P25100 1-572): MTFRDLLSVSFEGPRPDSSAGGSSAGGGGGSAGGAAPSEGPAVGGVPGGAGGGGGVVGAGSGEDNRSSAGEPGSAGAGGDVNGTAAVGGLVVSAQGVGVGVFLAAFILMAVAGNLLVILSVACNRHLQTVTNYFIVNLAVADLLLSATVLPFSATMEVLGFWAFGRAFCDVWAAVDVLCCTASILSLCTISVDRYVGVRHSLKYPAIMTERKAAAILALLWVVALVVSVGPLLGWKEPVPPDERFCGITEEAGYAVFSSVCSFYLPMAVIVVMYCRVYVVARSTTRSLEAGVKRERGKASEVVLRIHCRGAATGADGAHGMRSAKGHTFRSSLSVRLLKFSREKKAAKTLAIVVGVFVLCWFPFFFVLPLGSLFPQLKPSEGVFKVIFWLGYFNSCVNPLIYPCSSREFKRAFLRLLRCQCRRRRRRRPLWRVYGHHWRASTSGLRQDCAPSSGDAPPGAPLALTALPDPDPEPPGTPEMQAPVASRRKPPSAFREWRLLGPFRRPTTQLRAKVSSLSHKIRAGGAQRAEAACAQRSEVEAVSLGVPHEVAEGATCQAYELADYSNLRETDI

[2] = single-component inhibition curve, given as log KD (negative), mean ± SE mean, read-out: Log KD α1A (converted)
[3] = single-component inhibition curve, given as log KD (negative), mean ± SE mean
[4] = Log KD α1D, single-component inhibition curve, given as log KD (negative), mean ± SE mean
[5] = percentage of inhibition through first component, control
[6] = two-component inhibition curve, proportion of site 1
[7] = log KD from 3H-prazosin whole cell binding, CHO cells, mean ± s.e.mean

## O=C1CCC(=O)N1C[C@H]1CC[C@H]2CN(c3ncccn3)CCN2C1 [Sunepitron]
Human α1A-adrenoceptor
  Selectivity ratio α1A vs α1D: 2.8 fold
  Selectivity ratio α1A vs α1B: 13 fold
Human α1A-adrenoceptor; [2]
  Kd: 1.66 µM
Human α1B-adrenoceptor
  selectivity α1B vs α1D: 4.8
Human α1B-adrenoceptor; [3]
  Kd: 22.4 µM
[1]; [4]
  Kd: 4.68 µM
[1]
  Selectivity ratio α1B vs α1D: 4.8 fold

## O=C1Cc2cc(CCN3CCN(c4nsc5ccccc45)CC3)c(Cl)cc2N1 [Ziprasidone]
Human α1A-adrenoceptor
  Selectivity ratio α1A vs α1D: 34 fold
  Selectivity ratio α1A vs α1B: 11 fold
Human α1A-adrenoceptor; [2]
  Kd: 0.00186 µM
Human α1B-adrenoceptor; ratio of KD values, higher α1B affinity, 1.0 under vs = none
  Selectivity ratio α1B vs α1D: 3.2 fold
Human α1B-adrenoceptor; [3]
  Kd: 0.02 µM
[1]; [4]
  Kd: 0.0631 µM

## Cn1cc(C(F)(F)F)nc1-c1ccc(OCC(O)CNCCOc2ccc(O)c(C(N)=O)c2)cc1 (stereo not shown) [CGP 20712A]
Human α1A-adrenoceptor; log KD from 3H-prazosin whole cell binding, CHO cells, mean ± s.e.mean, read-out: Log KD α1A (converted)
  Kd: 11.7 µM
Human α1A-adrenoceptor
  selectivity α1A vs 1D: 1.1
  selectivity α1A vs α1B: >8.5
Human α1B-adrenoceptor; log IC50 bound
  Log IC50 α1B: Log IC50>-4
Human α1B-adrenoceptor
  selectivity α1B vs α1D: >9.1
[1]; Log KD α1D (apparent), apparent KD: maximum concentration inhibited most but not all specific binding, IC50 from extrapolated curve
  Kd: 11 µM

## O=C1NCN(c2ccccc2)C12CCN(CC1COc3ccccc3O1)CC2 (stereo not shown) [Spiroxatrine]
Human α1A-adrenoceptor
  Selectivity ratio α1A vs α1B: 2.8 fold
  selectivity α1A vs 1D: 10
Human α1A-adrenoceptor; [2]
  Kd: 0.138 µM
Human α1B-adrenoceptor
  selectivity α1B vs α1D: 28
Human α1B-adrenoceptor; [3]
  Kd: 0.389 µM
[1]; Log KD α1D site 1, high-affinity component of two-component curve, control, used for selectivity
  Kd: 0.0138 µM
[1]; low-affinity component of two-component curve, control
  Log KD α1D site 2: −5.84 ± 0.31
[1]; [5]
  % site 1 α1D: 61.9 ± 4.0% site 1
[1]
  Selectivity ratio α1A vs α1D: 10 fold
  Selectivity ratio α1B vs α1D: 28 fold
[1]; [6]
  % site 1 α1D: -7.86 ± 0.13 -5.84 ± 0.31 61.9 ± 4.0% site 1

## COc1ccccc1N1CCN(CCN2C(=O)c3ccccc3C(C)(C)C2=O)CC1 [ARC239]
Human α1A-adrenoceptor; [3]
  Log KD α1A: −9.35 ± 0.08
Human α1B-adrenoceptor; [3]
  Log KD α1B: −8.15 ± 0.07
[1]; [5]
  % site 1 α1D: 60.5 ± 1.4% site 1

## CCN1CCCC1CNC(=O)c1cc(S(=O)(=O)CC)c(N)cc1OC (stereo not shown) [Amisulpiride]
Human α1A-adrenoceptor; [3]
  Log KD α1A: −5.05 ± 0.04
Human α1B-adrenoceptor
  Log KD α1B: result in words: No binding to 100 µmol/L
  binding at α1B: No binding to 100µM
  binding at α1B (result in words): No binding to 100µM
[1]; app: top concentration inhibited most but not all specific binding, curve extrapolated
  Log KD α1D (apparent): −4.55 ± 0.08^app

## COc1ccccc1N1CCN(CC2CN3C(=O)N(C)c4ccccc4C3=N2)CC1 (stereo not shown) [2‐MPMDQ]
Human α1A-adrenoceptor; [3]
  Log KD α1A: −9.06 ± 0.07
Human α1B-adrenoceptor; [3]
  Log KD α1B: −7.37 ± 0.04
[1]; [5]
  % site 1 α1D: 64.0 ± 2.1% site1

## COc1ccc2cccc(CCNC(C)=O)c2c1 [Agomelatine]
Human α1A-adrenoceptor; app: top concentration inhibited most but not all specific binding, curve extrapolated, read-out: Log KD α1A (apparent) (converted)
  Kd: 26.9 µM
Human α1A-adrenoceptor
  Selectivity ratio α1A vs α1B: >3.7 fold
Human α1B-adrenoceptor
  Log KD α1B: result in words: No binding to 100 µmol/L
  binding at α1B: No binding to 100µM
  binding at α1B (result in words): No binding to 100µM
[1]
  IC50: > 31.6 µM

## CN1CC[C@]2(CCN3CCc4c(oc5ccccc45)[C@@H]3C2)N(C)C1=O.Cl [MK-912]
Human α1A-adrenoceptor; [7]
  Log KD α1A: -6.76 ± 0.03
Human α1A-adrenoceptor
  selectivity α1A vs 1D: 3.5
  selectivity α1A vs α1B: 20
Human α1B-adrenoceptor; [7]
  Log KD α1B: -5.46 ± 0.05
Human α1B-adrenoceptor
  selectivity α1B vs α1D: 69
[1]; two-component inhibition curve, first (high-affinity) component
  Log KD α1D site 1: -7.30 ± 0.16
[1]; [6]
  % site 1 α1D: 61.2 ± 5.5%
[1]; two-component inhibition curve, second (low-affinity) component
  Log KD α1D site 2: -5.50 ± 0.25

## Cn1cc(C(F)(F)F)nc1-c1ccc(OCC(O)CNCCOc2ccc(O)c(C(N)=O)c2)cc1 (stereo not shown) [CGP20712A]
Human α1A-adrenoceptor
  Selectivity ratio α1A vs α1B: >8.5 fold
Human α1A-adrenoceptor; [2]
  Kd: 11.7 µM
Human α1B-adrenoceptor; read-out: Log IC50 α1B (converted)
  IC50: > 100 µM
[1]; Log KD α1D (apparent), app: top concentration inhibited most but not all specific binding, curve extrapolated
  Kd: 11 µM
[1]
  Selectivity ratio α1A vs α1D: 1.1 fold
  Selectivity ratio α1B vs α1D: >9.1 fold
